We go through six compounds from patent USRE29675E, “O-(Halophenylcarbamyl)-N-(halophenyl) glycolamides” (Stauffer Chemical Company, priority 1977, dated 1978).

What all share (assay type): cell-based
One assay deals with Scenedesmus obliquus. The assay is described as follows: In Vitro Agar Screening Test, algae. The settings on record: Tetradesmus obliquus, modified Jack Meyers agar, room temperature, artificial light, indicates partial control at this concentration, read-out: Minimum Inhibitory Concentration. On the procedure: (§1) This test measures the bactericidal, fungicidal and algaecidal properties of a compound when in contact with growing bacteria, fungi or algae in an artifical medium. The test is conducted by adding 20 ml. portions of a suitable warm sterile agar solution into 20 × 100 mm. Petri dishes. Then, the test compound, in 0.5 percent acetone solution, is added to the Petri dishes at levels of 1, 10 and 50 μg/ml. and mixed with the warm mobile agar solution. The treated agar mixture is then allowed to come to room temperature and solidify. Cells of the chosen organism are streaked on the surface of the solidified agar and are then incubated for such lengths of time that untreated samples containing no toxicant show luxurious growth typical of the particular organism. This time varies from 24 hours to one week depending on the particular organism. The fungi are incubated at 30° C. and the bacteria are incubated at 37° C. The algae are incubated at room temperature under artificial light. Nutrient agar is used as the medium in this test for the bacteria. Potato dextrose agar is used as the medium for the fungi with the exception of Trichophyton mentagrophytes for which Emmons agar is used. A modified Jack Meyers agar is used for the growth of the algae.
(§2) The extent of growth is noted at the end of the incubation period.
(§3) Representative organisms used in this test are as follows: […]

Assay [1] deals with Brevibacterium ammoniagenes. Briefly: In Vitro Agar Screening Test, bacteria. The conditions noted are these: Corynebacterium ammoniagenes, nutrient agar, 37° C., read-out: Minimum Inhibitory Concentration. On the procedure: as §1, §2, §3
In another assay the test system is stapylococcus aureus. The assay is described as follows: In Vitro Vial Test (bactericidal, nutrient broth). The settings on record: 168 h, sealed vial incubated one week, read-out: Concentration (PPM) Which Inhibited Growth. On the procedure: The following test illustrates utility of the compounds in controlling bacteria. This test measures the bactericidal properties of a compound when in contact with a growing bacterium. The test is conducted by partially filling a 1-ounce vial with nutrient broth. Next the test compound is added to the vial at a certain concentration, expressed in parts per million, and mixed with the broth. A water suspension of cells of stapylococcus aureus is added. The vial is then sealed and incubated for one week.

The next assay deals with Enterobacter aerogenes. The assay is described as follows: In Vitro Agar Screening Test, bacteria. The conditions noted are these: Klebsiella aerogenes, nutrient agar, 37° C., indicates partial control at this concentration, read-out: Minimum Inhibitory Concentration. On the procedure: as §1, §2, §3
The next assay relates to Staphylococcus aureus. Briefly: In Vitro Agar Screening Test, bacteria. The conditions noted are these: Stapylococcus aureus, nutrient agar, 37° C., read-out: Minimum Inhibitory Concentration. On the procedure:
as §1, §2, §3

Assay [2] has as its system Desulfovibrio desulfuricans. Briefly: Sulfate Reducing Bacteria In Vitro Test. The conditions noted are these: Sulfate API broth with tryptone, anaerobic, room temperature, 3 to 5 days, unit from method text, read-out: minimum inhibitory concentration necessary to control the organism. On the procedure:
This test measures the bactericidal properties of a compound when in contact with a sulfate reducing bacteria, specifically Desulfovibrio desulfuricans. The test is conducted by dissolving the test compound in acetone to give an 0.5 percent solution. This toxicant is added to vials containing sterile Sulfate API broth with tryptone under anaerobic conditions at such levels to give final toxicant concentrations of 1, 5, 10 and 50 μg/ml. of solution. An inoculant solution of 0.5 ml of the growing organism, Desulfovibrio desulfuricans, is added to the vials followed by sufficient sterile distilled water to give a total of 10 ml. of solution in the vials. […] The following is a summary of the minimum inhibitory concentration necessary to control the organism.

The test system of the next assay is Aspergillus oryzae. Briefly: In Vitro Agar Screening Test, fungi. The conditions noted are these: potato dextrose agar, 30° C., read-out: Minimum Inhibitory Concentration. On the procedure:
as §1, §2, §3

Assay [3] deals with Trichophyton mentagrophytes. The assay is described as follows: In Vitro Agar Screening Test, fungi. The conditions noted are these: Emmons agar, 30° C., indicates partial control at this concentration, read-out: Minimum Inhibitory Concentration. On the procedure:
as §1, §2, §3

A further assay relates to Bacillus cereus. The assay is described as follows: In Vitro Agar Screening Test, bacteria. The conditions noted are these: nutrient agar, 37° C., indicates partial control at this concentration, read-out: Minimum Inhibitory Concentration. On the procedure:
as §1, §2, §3

≈ marks a conversion by molar mass, not a printed value. Where only a bound is given, the exact number is not on record here.

In the case of `O=C(COC(=O)Nc1ccc(Cl)cc1)Nc1ccc(Cl)c(Cl)c1` [Compound 1], the MIC was determined as 1 µg/mL (≈ 2.68 µM) in the assay on Scenedesmus obliquus; 5 µg/mL (≈ 13.4 µM) in assay [1]; 0.25 µg/mL (≈ 0.669 µM) in the assay on stapylococcus aureus; 1 µg/mL (≈ 2.68 µM) with Enterobacter aerogenes; 1 µg/mL (≈ 2.68 µM) in the assay with Staphylococcus aureus; 50 µg/mL (≈ 134 µM) in assay [2]. In addition, the MIC (in the assay on Aspergillus oryzae; in [3]) was 5 µg/mL (≈ 13.4 µM) each time.
Turning to `O=C(COC(=O)Nc1cccc(Cl)c1)Nc1ccc(Cl)c(Cl)c1` [Compound 2, O-(3-Chlorophenylcarbamyl)-N-(3,4-dichlorophenyl)-glycolamide], the MIC in [1] is 5 µg/mL (≈ 13.4 µM); in the assay with stapylococcus aureus, 0.25 µg/mL (≈ 0.669 µM); in the assay on Bacillus cereus, 1 µg/mL (≈ 2.68 µM); in the assay on Staphylococcus aureus, 1 µg/mL (≈ 2.68 µM); in assay [2], 10 µg/mL (≈ 26.8 µM); with Aspergillus oryzae, above 50 µg/mL.
In the case of `O=C(COC(=O)Nc1cccc(Cl)c1)Nc1ccc(Cl)cc1` [Compound 3], in the assay on stapylococcus aureus, the MIC was 5 µg/mL (≈ 14.7 µM).
For `O=C(COC(=O)Nc1ccc(Cl)c(Cl)c1)Nc1ccc(Cl)cc1` [Compound 4], in the assay with stapylococcus aureus, the MIC is 1 µg/mL (≈ 2.68 µM).
As for `O=C(COC(=O)Nc1ccc(Cl)c(Cl)c1)Nc1ccc(Cl)c(Cl)c1` [Compound 5], the MIC in the assay on stapylococcus aureus stood at 1 µg/mL (≈ 2.45 µM).
For `O=C(COC(=O)Nc1cccc(Br)c1)Nc1ccc(Cl)c(Cl)c1` [Compound 6], in the assay on stapylococcus aureus, the MIC was found to be 0.5 µg/mL (≈ 1.2 µM).
